Laboratory results published in paper PMC6774072, “Azologization and repurposing of a hetero-stilbene-based kinase inhibitor: towards the design of photoswitchable sirtuin inhibitors” (Beilstein Journal of Organic Chemistry, 2019).
Read-outs that look alike come from different tables or passages of the source.

How the values were obtained:
Sirt1 = target: T1, Sirt1 (Homo sapiens, UniProt Q96EB6); assay: fluorescence-based deacetylase assay with Z-Lys(acetyl)-AMC (ZMAL) substrate; assay type: biochemical; details: @ 100 µM
T1 construct: Expression and purification of Sirt1_133-747; made in house
T1 sequence (Q96EB6 133-747): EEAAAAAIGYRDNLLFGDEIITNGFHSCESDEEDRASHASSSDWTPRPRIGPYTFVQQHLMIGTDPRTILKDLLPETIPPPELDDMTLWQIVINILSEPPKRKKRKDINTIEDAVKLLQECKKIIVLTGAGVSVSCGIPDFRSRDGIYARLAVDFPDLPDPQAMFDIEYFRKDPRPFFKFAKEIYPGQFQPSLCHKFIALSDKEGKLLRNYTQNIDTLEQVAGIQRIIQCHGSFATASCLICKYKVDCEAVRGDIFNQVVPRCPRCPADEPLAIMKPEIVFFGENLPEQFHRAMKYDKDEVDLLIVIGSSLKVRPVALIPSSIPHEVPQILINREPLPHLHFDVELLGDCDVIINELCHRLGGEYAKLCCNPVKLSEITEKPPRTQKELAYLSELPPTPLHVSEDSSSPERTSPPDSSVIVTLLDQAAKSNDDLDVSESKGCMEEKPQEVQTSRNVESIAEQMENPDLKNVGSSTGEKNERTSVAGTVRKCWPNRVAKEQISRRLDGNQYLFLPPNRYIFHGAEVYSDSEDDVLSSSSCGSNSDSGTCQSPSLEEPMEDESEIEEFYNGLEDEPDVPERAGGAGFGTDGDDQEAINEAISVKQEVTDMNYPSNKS
Description: (§1) The influence on deacetylase activity of three human sirtuin isoforms (Sirt1–3) was determined in a fluorescence-based assay, using Z-Lys(acetyl)-AMC (ZMAL) as a substrate. Compared to the lead structure 2a, all compounds except 2e–h show increased inhibitory activity against Sirt2 (Table 1). […] Moreover, a slight increase in selectivity for Sirt2 and Sirt3 over Sirt1 could be observed for 2c, 4a and 4b. […] Though not photoswitchable, compounds 4a and 4b were synthesized to test the influence of a rigid conformation around the C=C double bond on sirtuin inhibition. […] A recently developed fluorescence polarization (FP)-based assay enables mapping of ligand binding to this specific binding site. For 2a an interaction with the selectivity pocket was already implied in the same work. Additionally performed docking studies proposed a binding mode in which 2a mimics the nicotinamide residue of NAD^+, whereas aromatic amino acid residues of the selectivity pocket stabilize the dimethylphenol ring. As photoisomerization in stilbenes and azo dyes is accompanied by a perpendicular twist of the phenyl ring towards the former molecular plane, we assumed that this conformational change should provoke a differential binding situation at least for the dimethylphenol residue in 2a. Unfortunately, binding of 2b and c could not be localised in the vicinity of the selectivity pocket of Sirt2, so that the binding pose remains unclear.
(§2) The photoswitchable diazeno compound 11 was subjected to biological evaluation to test the effect of photoisomerization on the inhibitory activity. The enzyme assay mixture containing 11 was exposed to 5 minutes of 365 nm radiation and compared with the results of a non-irradiated measurement. […] Unfortunately, 365 nm radiation turned out to have only minor effects on the IC50 values of 11 (Table 3).
(§3) Cloning, expression and purification of recombinant proteins: Expression and purification of Sirt1_133-747, Sirt2_56−356, and Sirt3_118−395 was carried out as described previously. Identity and purity were verified by SDS-PAGE [65]. Protein concentration was determined by the Bradford assay.
(§4) Bioassay: The inhibitory effect of compounds 2a–h, 4a/b, 8a and 11 on Sirt1–3 was detected via a previously reported fluorescence based assay. The synthetic substrate Z-Lys(acetyl)-AMC (ZMAL) is deacetylated by sirtuins, followed by tryptic digestion and thereby release of […], leading to a fluorescent readout. Inhibition was determined by comparing percentage substrate conversion to a DMSO control after subtraction of the blank fluorescence signal. All compounds were tested at 100 µM, 50 µM and 10 µM, respectively. […] IC50 values were calculated with OriginPro 9.0 G using a non-linear regression to fit the dose response curve. An enzyme-free blank control and a 100% conversion control using AMC instead of ZMAL were measured as well. Inhibition measurements were performed in biological duplicates for all compounds.

Sirt3 = target: T2, Sirt3 (Homo sapiens, UniProt Q9NTG7); assay: as above; assay type: biochemical; details: read-out: Sirt3 inhibition IC50
T2 construct: Sirt3_118−395; made in house
T2 sequence (Q9NTG7 118-395): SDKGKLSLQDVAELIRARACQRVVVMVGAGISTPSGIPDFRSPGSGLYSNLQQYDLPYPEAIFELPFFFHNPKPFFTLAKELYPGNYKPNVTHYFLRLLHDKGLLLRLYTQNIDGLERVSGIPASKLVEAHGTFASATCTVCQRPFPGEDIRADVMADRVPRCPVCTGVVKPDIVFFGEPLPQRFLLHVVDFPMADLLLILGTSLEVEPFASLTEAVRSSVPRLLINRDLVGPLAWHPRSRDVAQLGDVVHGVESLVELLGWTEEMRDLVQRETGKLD
Description: as §1, §2, §3, §4

[1] = photostationary state (PSS) after 5 minutes of 365 nm irradiation
[2] = thermal equilibrium (∆), non-irradiated

With `NC(=O)c1cncc(N=Nc2ccc(F)cc2)c1` [Compound 11, 5-[(4-Fluorophenyl)diazenyl]nicotinamide] the inhibition at 100 µM (Sirt1; [1]) was 19%, the inhibition at 100 µM (Sirt1; [2]) was 35% and the IC50 (Sirt3; [1]) was 29.9 ± 2.11 µM. For the same compound, the IC50 (Sirt3; [2]) was 27.5 ± 3.42 µM and the melting point was 212.3 °C.
